Columns and labels:
[1] = tested on: sweet corn variety WH0809; experiment: Sugar content of sweet corn kernels (Example 2); format: in vivo; conditions: for Sugar content Raffanose: treated check 0.51; for Sugar content Maltose: treated check 0.61; for Sugar content Fructose: treated check 1.04; for Sugar content Glucose: treated check 1.91; for Sugar content Sucrose: treated check 10.72
Experimental: (§1) A field study was conducted at Greenback, TN to investigate POST applications of several herbicide inhibitors of photosynthesis for sweet corn safety and for changes in carbohydrate content in the kernels of sweet corn among treatments. Treatments included bentazon at 1120 and 2240 g ai/ha, linuron at 280 and 560 g ai/ha, metribuzin at 105 and 210 g ai/ha, and bromoxynil at 560 and 1120 g ai/ha. All treatments included a PRE application of a common residual corn herbicide in order to maintain weed free conditions. […] Sweet corn was harvested from the center two rows of each four row plot and weighed in the husk. Eight ears of corn were harvested from each plot and were pooled over replicates for analysis of key carbohydrates which included the sugars sucrose, fructose, glucose, maltose, and raffanose.

[2] = tested on: sweet corn variety WH0809; experiment: Visual injury of sweet corn after POST herbicide inhibitors of photosynthesis (Example 2); format: in vivo
Experimental: as §1

[3] = tested on: sweet corn variety WH0809; experiment: Sweet corn yield, harvested and weighed in the husk (Example 2); format: in vivo; conditions: treated check 9758.4
Experimental: as §1

basil ‘Genovese’ = experiment: Yield, fresh weight of basil after insecticide, fungicide, PGRs and safeners (Example 4, Table 10); format: in vivo; conditions: DA-A, check 31.8
Experimental: (§2) Greenhouse and laboratory studies were conducted to ascertain the tolerance and nutritional quality differences following postemergence applications of the insecticide chlorpyrifos, the fungicide chlorothalonil, the PGRs mepiquat-chloride and paclobutrazol, and the safeners napthalic anhydride and isoxadifen-ethyl on kale ‘Red Russian’ and basil ‘Genovese’. Visual injury was rated based on general phytotoxicity, chlorosis, and visual stunting and each measurement was based on a percent scale from 0 to 100 where 0 equals no visual response and 100 equals complete plant death. Kale and basil were both harvested approximately 4 weeks after treatments and plants were pooled over replicates for content analysis of crude protein, crude amino acid content, acid detergent fiber, neutral detergent fiber, total fatty acids, and/or key mineral content (including Na, Ca, P, Mg, K, Fe, Mn, Zn, and Cu). In addition, the amounts of key individual amino acids (aspartic acid, threonine, glutamic acid, proline, glycine, cysteine, valine, leucine, isoleucine, methionine, and lysine) and composite classifications of fatty acid (saturated fatty acids, monounsaturated fatty acids, polyunsaturated fatty acids) were also analyzed from these sub-samples for kale (Tables 10-14).

basil 'Genovese' [4] = experiment: Visual injury of basil after insecticide, fungicide, PGRs, safeners (Example 4)
Experimental: as §2

basil 'Genovese' [5] = experiment: Content analysis of basil: protein, minerals (Example 4, Tables 10-11); format: in vivo; conditions: 28 DA-A
Experimental: as §2

[6] = rates g ai/ha: chlropyrifos 1120, chlorothalonil 2630, paclobutrazol 3.23, mepiquat-chloride 12.3, Isoxadifen 8, Napthalic anhydride 264, + NIS 0.25 % v/v
[7] = 7 DA-A, rates g ai/ha: chlropyrifos 1120, chlorothalonil 2630, paclobutrazol 3.23, mepiquat-chloride 12.3, Isoxadifen 8, Napthalic anhydride 264, + NIS 0.25 % v/v
[8] = 7 DA-A, rates g ai/ha: chlropyrifos 3370, chlorothalonil 7900, paclobutrazol 9.7, mepiquat-chloride 37, Isoxadifen 16, Napthalic anhydride 527, + NIS 0.25 % v/v
[9] = 14 DA-A, rates g ai/ha: chlropyrifos 1120, chlorothalonil 2630, paclobutrazol 3.23, mepiquat-chloride 12.3, Isoxadifen 8, Napthalic anhydride 264, + NIS 0.25 % v/v
[10] = 14 DA-A, rates g ai/ha: chlropyrifos 3370, chlorothalonil 7900, paclobutrazol 9.7, mepiquat-chloride 37, Isoxadifen 16, Napthalic anhydride 527, + NIS 0.25 % v/v
[11] = 28 DA-A, rates g ai/ha: chlropyrifos 1120, chlorothalonil 2630, paclobutrazol 3.23, mepiquat-chloride 12.3, Isoxadifen 8, Napthalic anhydride 264, + NIS 0.25 % v/v
[12] = 28 DA-A, rates g ai/ha: chlropyrifos 3370, chlorothalonil 7900, paclobutrazol 9.7, mepiquat-chloride 37, Isoxadifen 16, Napthalic anhydride 527, + NIS 0.25 % v/v
[13] = rates g ai/ha: chlroprifos 3370, chlorothalonil 7900, paclobutrazol 9.7, mepiquat-chloride 37, Isoxadifen 16, Napthalic anhydride 527, + NIS 0.25 % v/v

## CON(C)C(=O)Nc1ccc(Cl)c(Cl)c1 [LINURON, linuron]
[1]; 280 g ai/ha + COC 1% v/v POST
  Sugar content Raffanose: 0.64 mg/g dw
  Sugar content Maltose: 0.95 mg/g dw
  Sugar content Fructose: 1.86 mg/g dw
  Sugar content Glucose: 3.22 mg/g dw
  Sugar content Sucrose: 12.02 mg/g dw
[1]; 560 g ai/ha + COC 1% v/v POST
  Sugar content Raffanose: 0.48 mg/g dw
  Sugar content Maltose: 0.59 mg/g dw
  Sugar content Fructose: 1.39 mg/g dw
  Sugar content Glucose: 2.33 mg/g dw
  Sugar content Sucrose: 13.30 mg/g dw
[2]; 280 g ai/ha + COC 1% v/v POST, 1st of 3 Injury columns, rating date not given
  Injury: 25%
[2]; 280 g ai/ha + COC 1% v/v POST, 2nd of 3 Injury columns (agrees with 14 DAT of b67)
  Injury: 22%
[2]; 280 g ai/ha + COC 1% v/v POST, 3rd of 3 Injury columns, rating date not given
  Injury: 25%
[2]; 560 g ai/ha + COC 1% v/v POST, 1st of 3 Injury columns, rating date not given
  Injury: 38%
[2]; 560 g ai/ha + COC 1% v/v POST, 2nd of 3 Injury columns (agrees with 14 DAT of b67)
  Injury: 35%
[2]; 560 g ai/ha + COC 1% v/v POST, 3rd of 3 Injury columns, rating date not given
  Injury: 27%
[3]; 280 g ai/ha + COC 1% v/v POST
  YIELD: 8062.6 kg
[3]; 560 g ai/ha + COC 1% v/v POST
  YIELD: 9227.9 kg

## CCOC(=O)C1=NOC(c2ccccc2)(c2ccccc2)C1 [isoxadifen, isoxadifen-ethyl]
Basil ‘Genovese’; [6]
  Yield Fresh weight: 34.2 grams
Basil ‘Genovese’; rates g ai/ha: chlropyrifos 3370, chlorothalonil 7900, paclobutrazol 9.7, mepiquat-chloride 37, Isoxadifen 16, Napthalic anhydride 527, + NIS 0.25 % v/v
  Yield Fresh weight: 36.9 grams
Basil 'Genovese' [4]; [7]
  Phytotoxicity Chlorosis: 8%
  Phytotoxicity General: 3%
  Phytotoxicity Stunting: 2%
Basil 'Genovese' [4]; [8]
  Phytotoxicity Chlorosis: 7%
  Phytotoxicity General: 7%
  Phytotoxicity Stunting: 7%
Basil 'Genovese' [4]; [9]
  Phytotoxicity Chlorosis: 5%
  Phytotoxicity General: 2%
  Phytotoxicity Stunting: 5%
Basil 'Genovese' [4]; [10]
  Phytotoxicity Chlorosis: 8%
  Phytotoxicity General: 8%
  Phytotoxicity Stunting: 10%
Basil 'Genovese' [4]; [11]
  Phytotoxicity Chlorosis: 2%
  Phytotoxicity General: 2%
  Phytotoxicity Stunting: 5%
Basil 'Genovese' [4]; [12]
  Phytotoxicity Chlorosis: 0%
  Phytotoxicity General: 7%
  Phytotoxicity Stunting: 8%
Basil 'Genovese' [5]; [13]
  ADF, Percent Increase Over the Untreated Check (on a % dry matter basis): 13 % check
  Calcium, Percent Increase Over the Untreated Check (on a % dry matter basis): 6 % check
  Copper, Percent Increase Over the Untreated Check (on a % dry matter basis): 0 % check
  Iron, Percent Increase Over the Untreated Check (on a % dry matter basis): 27 % check
  Magnesium, Percent Increase Over the Untreated Check (on a % dry matter basis): 12 % check
  Manganese, Percent Increase Over the Untreated Check (on a % dry matter basis): 118 % check
  NDF, Percent Increase Over the Untreated Check (on a % dry matter basis): 0 % check
  Phosphorous, Percent Increase Over the Untreated Check (on a % dry matter basis): 28 % check
  Potassium, Percent Increase Over the Untreated Check (on a % dry matter basis): 16 % check
  Protein, Percent Increase Over the Untreated Check (on a % dry matter basis): 22 % check
  Sodium, Percent Increase Over the Untreated Check (on a % dry matter basis): 17 % check
  Soluble protein, Percent Increase Over the Untreated Check (on a % dry matter basis): 4 % check
  Zinc, Percent Increase Over the Untreated Check (on a % dry matter basis): 34 % check
Basil 'Genovese' [5]; [6]
  ADF, Percent Increase Over the Untreated Check (on a % dry matter basis): 6 % check
  Calcium, Percent Increase Over the Untreated Check (on a % dry matter basis): −2 % check
  Copper, Percent Increase Over the Untreated Check (on a % dry matter basis): 0 % check
  Iron, Percent Increase Over the Untreated Check (on a % dry matter basis): 25 % check
  Magnesium, Percent Increase Over the Untreated Check (on a % dry matter basis): 9 % check
  Manganese, Percent Increase Over the Untreated Check (on a % dry matter basis): 10 % check
  NDF, Percent Increase Over the Untreated Check (on a % dry matter basis): 1 % check
  Phosphorous, Percent Increase Over the Untreated Check (on a % dry matter basis): 17 % check
  Potassium, Percent Increase Over the Untreated Check (on a % dry matter basis): 17 % check
  Protein, Percent Increase Over the Untreated Check (on a % dry matter basis): 14 % check
  Sodium, Percent Increase Over the Untreated Check (on a % dry matter basis): 27 % check
  Soluble protein, Percent Increase Over the Untreated Check (on a % dry matter basis): 12 % check
  Zinc, Percent Increase Over the Untreated Check (on a % dry matter basis): 38 % check

Reference: US20110053773A1, “METHODS OF IMPROVING NUTRITIONAL VALUE OF PLANTS” (UNIVERSITY OF TENNESSEE RESEARCH FOUNDATION, priority 2009, published 2011)
